Data set [1] addresses T1, HCV polymerase (NS5B570n-Con1) (Hepatitis C virus genotype 1b, UniProt Q9WMX2).
T1 construct: contains a 21 amino acid deletion at the C-terminus relative to the full-length HCV polymerase; 6-histidine (N); made in house; host or cells: E. coli BL21(DE) pLysS, plasmid pET17b
Kind of data set: HCV NS5B RNA polymerase activity assay. Type of data set: biochemical, HCV Con1 strain. Here is the method:
The enzymatic activity of HCV polymerase (NS5B570n-Con1) was measured as the incorporation of radiolabeled nucleotide monophosphates into acid insoluble RNA products. Unincorporated radiolabeled substrate was removed by filtration and scintillant was added to the washed and dried filter plate containing radiolabeled RNA product. The amount of RNA product generated by NS5B570-Con1 at the end of the reaction was directly proportional to the amount of light emitted by the scintillant.
The N-terminal 6-histidine tagged HCV polymerase, derived from HCV Con1 strain, genotype 1b (NS5B570n-Con1) contains a 21 amino acid deletion at the C-terminus relative to the full-length HCV polymerase and was purified from E. coli strain BL21(DE) pLysS. The construct, containing the coding sequence of HCV NS5B Con1 (GenBank accession number AJ242654) was inserted into the plasmid construct pET17b, downstream of a T7 promoter expression cassette and transformed into E. coli. A single colony was grown overnight as a starter culture and later used inoculate 10 L of LB media supplemented with 100 μg/mL ampicillin at 37° C. Protein expression was induced by the addition of 0.25 mM isopropyl-β-D-thiogalactopyranoside (IPTG) when optical density at […] of the culture was between 0.6 and 0.8 and cells were harvested after 16 to 18 h at 30° C. NS5B570n-Con1 was purified to homogeneity using a three-step protocol including subsequent column chromatography on Ni-NTA, SP-Sepharose HP and Superdex 75 resins.
Each 50 μl enzymatic reaction contained 20 nM RNA template derived from the complementary sequence of the Internal Ribosome Entry Site (cIRES), 20 nM NS5B570n-Con1 enzyme, 0.5 μCi of tritiated UTP (Perkin Elmer catalog no. TRK-412; specific activity: 30 to 60 Ci/mmol; stock solution concentration from 7.5×10^-5 M to 20.6×10^-6 M), 1 μM each ATP, CTP, and GTP, 40 mM Tris-HCl pH 8.0, 40 mM NaCl, 4 mM DTT (dithiothreitol), 4 mM MgCl2, and 5 μl of compound serial diluted in DMSO. Reaction mixtures were assembled in 96-well filter plates (cat #MADVN0B, Millipore Co.) and incubated for 2 h at 30° C. Reactions were stopped by addition of 10% final (v/v) trichloroacetic acid and incubated for 40 min at 4° C. Reactions were filtered, washed with 8 reaction volumes of 10% (v/v) trichloroacetic acetic acid, 4 reaction volumes of 70% (v/v) ethanol, air dried, and 25 μl of scintillant (Microscint 20, Perkin-Elmer) was added to each reaction well.
The amount of light emitted from the scintillant was converted to counts per minute (CPM) on a Topcount® plate reader (Perkin-Elmer, Energy Range: Low, Efficiency Mode: Normal, Count Time: 1 min, Background Subtract: none, Cross talk reduction: Off).
Data was analyzed in Excel® (Microsoft®) and ActivityBase® (Idbs®). The reaction in the absence of enzyme was used to determine the background signal, which was subtracted from the enzymatic reactions. Positive control reactions were performed in the absence of compound, from which the background corrected activity was set as 100% polymerase activity. All data was expressed as a percentage of the positive control. The compound concentration at which the enzyme-catalyzed rate of RNA synthesis was reduced by 50% (IC50) was calculated by fitting
[formula] equation (i) to the data. where “Y” corresponds to the relative enzyme activity (in %), “% Min” is the residual relative activity at saturating compound concentration, “% Max” is the relative maximum enzymatic activity, “X” corresponds to the compound concentration, and “S” is the Hill coefficient (or slope).

Turning to `COc1cc(C(=O)N(C)C)c(-c2ccc[nH]c2=O)cc1C(C)(C)C` [Compound I-41], the melting point is 208 to 210 °C. For the same compound, the midpoint of inhibition in data set [1], the IC50, lay at 1680 nM.

In turn, `COc1cc(CCO)c(-c2ccc[nH]c2=O)cc1C(C)(C)C` [Compound I-5, 3-[5-tert-Butyl-2-(2-hydroxy-ethyl)-4-methoxy-phenyl]-1H-pyridin-2-one] gave a melting point of 231.8 to 233.7 °C. In data set [1], this compound registered an IC50 of 1580 nM.

For the compound `COc1cc(CNS(=O)(=O)C(C)C)c(-c2ccc[nH]c2=O)cc1C(C)(C)C` [Compound I-25], the melting point lay within 118 to 120 °C. The compound further returned an IC50 in data set [1] of 183 nM.

For the compound `COc1cc(C(=O)N2CCOCC2)c(-c2ccc[nH]c2=O)cc1C(C)(C)C` [Compound I-40], the melting point is 208 to 210 °C. The compound further gave an IC50 in data set [1] of 533 nM.

For the compound `COc1cc(CNC(=O)C2CCCC(NS(C)(=O)=O)C2)c(-c2ccc[nH]c2=O)cc1C(C)(C)C` (stereo not shown) [Compound I-82], the melting point is 162 to 164 °C. This compound also had an IC50 in data set [1] of 30 nM.

In turn, `COc1cc(C(C)N(C)S(C)(=O)=O)c(-c2ccc[nH]c2=O)cc1C(C)(C)C` (stereo not shown) [Compound I-53, N-{1-[4-tert-Butyl-5-methoxy-2-(2-oxo-1,2-dihydro-pyridin-3-yl)-phenyl]-ethyl}-N-methyl-methanesulfonamide] had a melting point of 205 to 207 °C. The compound further yielded an IC50 in data set [1] of 187 nM.

As to `COc1cc(CN(C(C)C)S(C)(=O)=O)c(-c2ccc[nH]c2=O)cc1C(C)(C)C` [Compound I-28], the melting point is 285 to 286 °C. Also, inhibition in data set [1] was half-maximal at 33 nM (IC50).

In turn, `COc1cc(CN(CCOC(C)=O)S(C)(=O)=O)c(-c2ccc[nH]c2=O)cc1C(C)(C)C` [Compound I-30, 2-{[4-tert-Butyl-5-methoxy-2-(2-oxo-1,2-dihydro-pyridin-3-yl)-benzyl]-methanesulfonyl-amino}-ethyl acetate] came in with a melting point of 207 to 208 °C. The compound further displayed an IC50 in data set [1] of 35 nM.

In turn, `COc1cc(CNS(=O)(=O)Cc2ccccc2)c(-c2ccc[nH]c2=O)cc1C(C)(C)C` [Compound I-20] showed a melting point of 249 to 250 °C. In data set [1], half-maximal inhibition (IC50) was put at 211 nM.

Take `CC(C)(C)c1ccc(NS(C)(=O)=O)c(-c2ccc[nH]c2=O)c1` [Compound I-6, N-[4-tert-Butyl-2-(2-oxo-1,2-dihydro-pyridin-3-yl)-phenyl]-methane sulfonamide]: the melting point is 219.3 to 233.8 °C. Also, in data set [1], the IC50 was 3850 nM.

`COCCN1CCN(C(=O)c2cc(OC)c(C(C)(C)C)cc2-c2ccc[nH]c2=O)CC1` [Compound I-67] had a melting point of 179 to 181 °C. In data set [1], this compound registered a half-maximal inhibitory concentration (IC50) of 3690 nM.

`COCCN(C)C(=O)c1cc(OC)c(C(C)(C)C)cc1-c1ccc[nH]c1=O` [Compound I-47] gave a melting point of 160 to 162 °C. For the same compound, in data set [1], the 50% inhibitory concentration (IC50) amounted to 1510 nM.

Take `COc1cc(CN2Cc3ccc(NS(C)(=O)=O)cc3C2=O)c(-c2ccc[nH]c2=O)cc1C(C)(C)C` [Compound I-92]: the melting point lay within 173 to 175 °C. This compound also had an IC50 in data set [1] of 8 nM.

`COc1cc(CN2CCCCS2(=O)=O)c(-c2ccc[nH]c2=O)cc1C(C)(C)C` [Compound I-16] had a melting point of 225.8 to 226.1 °C. In addition, in data set [1], the IC50 stood at 35 nM.

In turn, `COc1cc(CN2CCCCC2=O)c(-c2ccc[nH]c2=O)cc1C(C)(C)C` [Compound I-23] gave a melting point of 224.6 to 228.9 °C. The compound also displayed an IC50 in data set [1] of 52 nM.

The compound `COc1cc(C(=O)N2CCN(C(C)=O)CC2)c(-c2ccc[nH]c2=O)cc1C(C)(C)C` [Compound I-46] displayed a melting point of 206 to 208 °C. Besides, the half-maximal inhibitory concentration (IC50) in data set [1] turned out to be 615 nM.

In turn, `COc1cc(CNC(=O)c2ccc(NS(C)(=O)=O)cc2)c(-c2ccc[nH]c2=O)cc1C(C)(C)C` [Compound I-43, N-[4-tert-butyl-5-methoxy-2-(2-oxo-1,2-dihydro-pyridin-3-yl)-benzyl]-4-methanesulfonylamino-benzamide] returned a melting point of 175 to 180 °C. In data set [1], this compound showed an IC50 of 50 nM.

Compound `CCC1(CC)C(=O)C=CN(Cc2cc(OC)c(C(C)(C)C)cc2-c2ccc[nH]c2=O)C1=O` [Compound I-39] displayed a melting point of 282 to 284 °C. Besides, in data set [1], half-maximal inhibition (IC50) was put at 159 nM.

`COc1cc(CN(C)S(C)(=O)=O)c(-c2ccc[nH]c2=O)cc1C(C)(C)C` [Compound I-86] showed a melting point of 230 to 231 °C. The compound further gave an IC50 in data set [1] of 52 nM.

`COc1cc(CN2CCNS2(=O)=O)c(-c2ccc[nH]c2=O)cc1C(C)(C)C` [Compound I-60, 3-[5-tert-Butyl-2-(1,1-dioxo-1λ^6-[1,2,5]thiadiazolidin-2-ylmethyl)-4-methoxy-phenyl]-1H-pyridin-2-on] yielded a melting point of 230 to 231 °C. This compound returned an IC50 in data set [1] of 23 nM.

`COc1cc(C(=O)N(C)Cc2ccc(F)cc2)c(-c2ccc[nH]c2=O)cc1C(C)(C)C` [Compound I-77] registered a melting point of 218 to 220 °C. The same compound registered an IC50 in data set [1] of 611 nM.

`COc1cc(CN(C)C(=O)c2cccc(NS(C)(=O)=O)c2)c(-c2ccc[nH]c2=O)cc1C(C)(C)C` [Compound I-65, N-[4-tert-Butyl-5-methoxy-2-(2-oxo-1,2-dihydro-pyridin-3-yl)-benzyl]-3-methanesulfonylamino-N-methyl-benzamide] showed a melting point of 170 to 172 °C. Further, the IC50 in data set [1] is 13 nM.

Turning to `COc1cc(C(=O)O)c(-c2ccc[nH]c2=O)cc1C(C)(C)C` [Compound I-4, 4-tert-Butyl-5-methoxy-2-(2-oxo-1,2-dihydro-pyridin-3-yl)-benzoic acid], the melting point was in the range of 244 to 245 °C. Inhibition in data set [1] was half-maximal at 27 nM (IC50).

In turn, `COc1cc(C(=O)N2CC(O)C2)c(-c2ccc[nH]c2=O)cc1C(C)(C)C` [Compound I-68] had a melting point of 236 to 238 °C. In addition, the 50% inhibitory concentration (IC50) in data set [1] stood at 211 nM.

For the compound `COc1cc(C#N)c(-c2ccc[nH]c2=O)cc1C(C)(C)C` [Compound I-91], the melting point is 247 to 249 °C. In addition, half-maximal inhibition in data set [1] (IC50) was put at 374 nM.

Turning to `COc1cc(Cn2c(=O)n(C)c3ccccc32)c(-c2ccc[nH]c2=O)cc1C(C)(C)C` [Compound I-69, 1-[4-tert-Butyl-5-methoxy-2-(2-oxo-1,2-dihydro-pyridin-3-yl)-benzyl]-3-methyl-1,3-dihydro-benzoimidazol-2-one], the melting point lay in the range of 140 to 142 °C. In addition, the IC50 in data set [1] is 34 nM.

As for `COc1cc(CN2C(=O)CCC2=O)c(-c2ccc[nH]c2=O)cc1C(C)(C)C` [Compound I-29], the melting point lay within 112.2 to 124.9 °C. This compound also had an IC50 in data set [1] of 68 nM.

Compound `COc1cc(CN2C(=O)c3ccccc3C2=O)c(-c2ccc[nH]c2=O)cc1C(C)(C)C` [Compound I-33, 2-[4-tert-Butyl-5-methoxy-2-(2-oxo-1,2-dihydro-pyridin-3-yl)-benzyl]-isoindole-1,3-dione] showed a melting point of 277 to 280 °C. Moreover, it took 35 nM to reach half-maximal inhibition in data set [1] (IC50).

For the compound `COc1cc(CNC(=O)c2ccc(N)cc2)c(-c2ccc[nH]c2=O)cc1C(C)(C)C` [Compound I-42, 4-Amino-N-[4-tert-butyl-5-methoxy-2-(2-oxo-1,2-dihydro-pyridin-3-yl)-benzyl]-benzamide], the melting point is 165 to 167 °C. In addition, the IC50 in data set [1] was determined as 36 nM.
